Laboratory results from patent US11440907B1 (Merck Patent GmbH, priority 2018, dated 2022).

What was measured:
Type in all cases: cell-based
[1] = tested on: XBP1(u)-luciferase splicing reporter in HepG2 hepatoma cells; assay: HepG2 XBP1 reporter assay (XBP1(u)-Luc); conditions: Homo sapiens, 6 hours after compound addition; for IC50: Table 4; for EC50: Table 3, read-out: XBP1-luc HepG2 1 EC50
[2] = tested on: DU4475 (breast cancer cells); assay: Cell viability (ATPLite) in DU4475; conditions: Homo sapiens, DU-4475, 96 hours
Protocol: (§1) Cells were removed from liquid nitrogen storage, thawed and expanded in appropriate growth media. Once expanded, cells were seeded in 384-well tissue culture treated plates at 500 cells per well. After 24 hours, cells were treated for either 0 hours or treated for 96 hours with a testing compound (at the concentrations of 100 nM and 2 uM). At the end of either 0 hours or 96 hours, cell status was analyzed using ATPLite (Perkin Elmer) to assess the biological response of cells to the testing compound.

[3] = tested on: NCI-H929 (Multiple myeloma cells); assay: Cell viability (ATPLite) in NCI-H929; conditions: Homo sapiens, 96 hours
Protocol: as §1

[4] = tested on: intracellular calcium flux in Colo-205 cells; assay: Calcium flux assay (FLIPR Calcium 5 Assay Kit, FLIPR3); conditions: Homo sapiens, 0.6 h, calcium flux measured over 36 minutes, read-out: Colo 205 Calcium Flux assay 384w Boston Ca assay FLIPR3 Colo EC50
Protocol: Compounds described herein induced ER stress by causing intracellular calcium flux. Calcium flux was measured in Colo-205 cells using the FLIPR® Calcium 5 Assay Kit according to manufacturer's protocol (Molecular Devices, Cat. #R8186) on a FLIPR3 system (Molecular Devices). Calcium flux is measured over 36 minutes. The Colo-205 calcium flux assay data are summarized in Table 3: A<0.6 μM; 0.6 μM≤B<2.0 μM; 2.0 μM≤C<10.0 μM; D≥10.0 μM.

[5] = tested on: β-catenin-TCF-mediated reporter transcription activity in Colo 205 cells; assay: Colo 205 reporter assay (TCF/LEF promoter-driven firefly luciferase); conditions: Homo sapiens; Colo 205 TCF/LEF luciferase reporter, 5 hours after compound addition, 384 well; read-out: Colo205 IC50

IC50 [1]	IC50 [2]	IC50 [3]	EC50 [4]	EC50 [1]	IC50 [5]	SMILES
2000 to 5000 nM	1000 to 10000 nM	1000 to 10000 nM				Cc1cc(N2CCCOCC2c2cc(F)c(Cl)cc2Cl)nc(N)n1 (centres unmarked) [C-18]
600 to 2000 nM	1000 to 10000 nM	1000 to 10000 nM				Cc1cc(N2CCCOCC2c2cc(Cl)c(C)cc2Cl)nc(N)n1 (centres unmarked) [C-3]
< 600 nM	< 1000 nM	< 1000 nM				Cc1cc(N2CCCOCC2c2cc3c(cc2Cl)OCC(=O)N3)nc(N)n1 (centres unmarked) [C-5]
600 to 2000 nM	1000 to 10000 nM	1000 to 10000 nM				Cc1cc(N2CCCOCC2c2cc(Cl)c(O)cc2Cl)nc(N)n1 (centres unmarked) [C-7]
< 600 nM	< 1000 nM	1000 to 10000 nM				Cc1cc(N2CCCOCC2c2cc3c(cc2Cl)OCCCO3)nc(N)n1 (centres unmarked) [C-13]
< 600 nM	< 1000 nM	< 1000 nM				CCNc1cc(Cl)c(C2COCCCN2c2cc(C)nc(N)n2)cc1C (centres unmarked) [C-21]
600 to 2000 nM	< 1000 nM	1000 to 10000 nM				COc1cc(Cl)c(C2COCCCN2c2cc(C)nc(N)n2)cc1OC(C)C (centres unmarked) [C-39]
2000 to 5000 nM	1000 to 10000 nM	1000 to 10000 nM				Cc1cc(N2CCCOCC2c2cc(C)c(F)cc2Cl)nc(N)n1 (centres unmarked) [C-38]
< 600 nM	< 1000 nM	< 1000 nM				Cc1cc(N2CCCOC[C@@H]2c2ccc(NC3COC3)cc2Cl)nc(N)n1 [C-152]
≥ 5000 nM	1000 to 10000 nM	1000 to 10000 nM				Cc1cc(N2CCCOCC2c2cc(Cl)c(Cl)cc2Cl)nc(N)n1 (centres unmarked) [C-34]
	≥ 25000 nM	≥ 25000 nM				Cc1cc(N2CCCOC[C@H]2c2ccc(S(C)(=O)=O)cc2Cl)nc(N)n1 [C-155]
< 600 nM	< 1000 nM	< 1000 nM				Cc1cc(N2CCCOCC2c2cc3c(cc2Cl)n(C)c(=O)n3C)nc(N)n1 (centres unmarked) [C-20]
	< 1000 nM	< 1000 nM				Cc1cc(N2CCCOCC2c2cc3c(cc2Cl)CCN3)nc(N)n1 (centres unmarked) [C-37]
	≥ 25000 nM	≥ 25000 nM				Cc1cc(N2CCCOCC2c2cc(O)c(O)cc2Cl)nc(N)n1 (centres unmarked) [C-22]
	1000 to 10000 nM	1000 to 10000 nM				Cc1cc(N2CCCOCC2c2cc(F)c(-c3cccnc3)cc2Cl)nc(N)n1 (centres unmarked) [C-33]
			600 to 2000 nM	2000 to 5000 nM	300 to 1000 nM	CC(C)c1cc(N2CCCCCC2c2ccccc2Cl)nc(N)n1 (racemic) [I-16, (+/−)-4-(2-(2-chlorophenyl)azepan-1-yl)-6-isopropylpyrimidin-2-amine]
			< 600 nM	< 600 nM	< 300 nM	CNc1ccc(Cl)c(C2COCCCN2c2cc(C)nc(N)n2)c1 (racemic) [I-175, (+/−)-4-[3-[2-chloro-5-(methylamino)phenyl]-1,4-oxazepan-4-yl]-6-methyl-pyrimidin-2-amine]
			< 600 nM	< 600 nM	< 300 nM	Cc1cc(N2CCCOC[C@@H]2c2ccc(NC3COC3)cc2Cl)nc(N)n1 [I-215, 4-[(3S)-3-[2-chloro-4-(oxetan-3-ylamino)phenyl]-1,4-oxazepan-4-yl]-6-methyl-pyrimidin-2-amine]

IC50 [1]	IC50 [2]	IC50 [3]	EC50 [4]	EC50 [1]	IC50 [5]	SMILES
			< 600 nM	< 600 nM	< 300 nM	CNc1ccc(Cl)c([C@H]2COCCCN2c2cc(C)nc(N)n2)c1 (single isomer, unassigned) [I-178, 4-[3-[2-chloro-5-(methylamino)phenyl]-1,4-oxazepan-4-yl]-6-methyl-pyrimidin-2-amine]
			< 600 nM	< 600 nM	300 to 1000 nM	COc1ccc(C2CCCCCN2c2cc(C)nc(N)n2)c(OC)c1 (racemic) [I-51, (+/−)-4-[2-(2,4-dimethoxyphenyl)azepan-1-yl]-6-methyl-pyrimidin-2-amine]
			< 600 nM	< 600 nM	300 to 1000 nM	Cc1cc(N2CCCOCC2c2cc(N3CCOCC3)ccc2Cl)nc(N)n1 (racemic) [I-226, (+/−)-4-(3-(2-chloro-5-morpholinophenyl)-1,4-oxazepan-4-yl)-6-methylpyrimidin-2-amine]
			< 600 nM	< 600 nM	< 300 nM	Cc1cc(N2CCCOC[C@@H]2c2ccc(N3CC4COCC4C3)cc2Cl)nc(N)n1 (stereo partly drawn) [I-220, 4-[(3S)-3-[4-(1,3,3a,4,6,6a-hexahydrofuro[3,4-c]pyrrol-5-yl)-2-chloro-phenyl]-1,4-oxazepan-4-yl]-6-methyl-pyrimidin-2-amine]
			< 600 nM	< 600 nM	300 to 1000 nM	Cc1cc(N2CCCOCC2c2ccc(NC(=O)C3CC3)cc2Cl)nc(N)n1 (centres unmarked) [I-305]
			< 600 nM	< 600 nM	< 300 nM	CC(=O)Nc1ccc(Cl)c([C@@H]2COCCCN2c2cc(C)nc(N)n2)c1 [I-92]
			600 to 2000 nM	2000 to 5000 nM	300 to 1000 nM	COc1ccc(Cl)cc1C1CCCCCN1c1cc(C)nc(N)n1 (centres unmarked) [I-21, 4-(2-(5-chloro-2-methoxyphenyl)azepan-1-yl)-6-methylpyrimidin-2-amine]
			< 600 nM	600 to 2000 nM	300 to 1000 nM	Cc1cc(N2CCCOCC2c2cc(N3CCCC3)ccc2Cl)nc(N)n1 (racemic) [I-199, (+/−)-4-[3-(2-chloro-5-pyrrolidin-1-yl-phenyl)-1,4-oxazepan-4-yl]-6-methyl-pyrimidin-2-amine]
			< 600 nM	< 600 nM	300 to 1000 nM	Cc1cc(N2CCCOC[C@@H]2c2ccc(S(C)(=O)=O)cc2Cl)nc(N)n1 (single isomer, unassigned) [I-68]
			< 600 nM	< 600 nM	300 to 1000 nM	Cc1cc(N2CCCOC[C@@H]2c2ccc(N3CCC4(CCOC4)C3)cc2Cl)nc(N)n1 (stereo partly drawn) [I-219, 4-[(3S)-3-[2-chloro-4-(2-oxa-7-azaspiro[4.4]nonan-7-yl)phenyl]-1,4-oxazepan-4-yl]-6-methyl-pyrimidin-2-amine]
			< 600 nM	600 to 2000 nM	< 300 nM	Cc1cc(N2CCCOC[C@H]2c2ccc(C(N)=O)cc2Cl)nc(N)n1 [I-188]
			< 600 nM	< 600 nM	< 300 nM	COC1CN(c2ccc([C@H]3COCCCN3c3cc(C)nc(N)n3)c(Cl)c2)C1 [I-217, 4-[(3S)-3-[2-chloro-4-(3-methoxyazetidin-1-yl)phenyl]-1,4-oxazepan-4-yl]-6-methyl-pyrimidin-2-amine]
			< 600 nM	< 600 nM	< 300 nM	Cc1cc(N2CCCOC[C@@H]2c2ccc(N(C)C3COC3)cc2Cl)nc(N)n1 (single isomer, unassigned) [I-190]
			< 600 nM	600 to 2000 nM	300 to 1000 nM	Cc1cc(N2CCCOCC2c2cc(N3CCCC3)ccc2Cl)nc(N)n1 (centres unmarked) [I-304]
			< 600 nM	< 600 nM	< 300 nM	Cc1cc(N2CCCOC[C@@H]2c2ccc(NC(=O)C3CC3)cc2Cl)nc(N)n1 (single isomer, unassigned) [I-207]
			< 600 nM	< 600 nM	< 300 nM	Cc1cc(N2CCCOCC2c2ccc(N(C)C3COC3)cc2Cl)nc(N)n1 (racemic) [I-186, (+/−)-4-[3-[2-chloro-4-[methyl(oxetan-3-yl)amino]phenyl]-1,4-oxazepan-4-yl]-6-methyl-pyrimidin-2-amine]
			< 600 nM	600 to 2000 nM	300 to 1000 nM	COc1cc(F)ccc1C1CCCCCN1c1cc(C)nc(N)n1 (centres unmarked) [I-22, 4-(2-(4-fluoro-2-methoxyphenyl)azepan-1-yl)-6-methylpyrimidin-2-amine]
			< 600 nM	< 600 nM	300 to 1000 nM	Cc1cc(N2CCCOCC2c2ccc(NC(=O)C3(O)CC3)cc2Cl)nc(N)n1 (centres unmarked) [I-303]
